US12558342B2, “2-[2-({12,12-dimethyl-4-oxo-6-phenyl-3,11-dioxatricyclo[8.4.0.0,2,7]tetradeca-1,5,7,9-tetraen-8-yl}oxy)acetamido]benzamide and derivatives as inhibitor of clock:bmal1 interaction for the treatment of circadian rhythm diseases and disorders” (KOC UNIVERSITESI, priority 2019, dated 2026)

Target: T1, CLOCK (Homo sapiens, UniProt O15516)
T1 sequence (O15516 1-846): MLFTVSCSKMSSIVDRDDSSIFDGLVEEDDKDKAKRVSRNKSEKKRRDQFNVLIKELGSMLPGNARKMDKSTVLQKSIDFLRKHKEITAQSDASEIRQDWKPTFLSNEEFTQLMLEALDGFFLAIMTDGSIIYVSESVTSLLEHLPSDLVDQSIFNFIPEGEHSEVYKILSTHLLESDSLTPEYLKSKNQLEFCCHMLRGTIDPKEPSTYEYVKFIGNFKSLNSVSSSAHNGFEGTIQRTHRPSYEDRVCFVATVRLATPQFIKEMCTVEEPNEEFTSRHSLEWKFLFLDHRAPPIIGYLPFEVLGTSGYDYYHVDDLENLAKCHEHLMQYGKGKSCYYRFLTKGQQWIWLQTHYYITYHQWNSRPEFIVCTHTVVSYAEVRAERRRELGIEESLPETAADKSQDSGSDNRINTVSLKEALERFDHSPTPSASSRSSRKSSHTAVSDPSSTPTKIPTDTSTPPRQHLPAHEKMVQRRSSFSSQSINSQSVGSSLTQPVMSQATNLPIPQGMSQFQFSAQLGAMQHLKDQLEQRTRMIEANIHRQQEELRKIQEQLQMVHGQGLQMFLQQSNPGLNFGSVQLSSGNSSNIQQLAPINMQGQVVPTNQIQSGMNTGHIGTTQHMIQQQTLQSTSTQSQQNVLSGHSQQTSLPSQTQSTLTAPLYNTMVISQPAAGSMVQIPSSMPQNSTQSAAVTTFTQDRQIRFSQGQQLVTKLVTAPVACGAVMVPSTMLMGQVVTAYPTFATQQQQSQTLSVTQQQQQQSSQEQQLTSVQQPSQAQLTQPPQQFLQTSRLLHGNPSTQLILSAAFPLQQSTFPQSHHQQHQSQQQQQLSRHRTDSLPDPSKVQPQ
Assay: LC-MS/MS of pull-down precipitates, CLOCK
Format: binding
Parameters: expressed in transfected cells; host or cells: HEK293T
Experimental: HEK293T cells were transiently transfected with tag-free hsClock and mBmal1. After 48 hours of transfection, cells were harvested and whole cell lysate was prepared with ice-cold lysis buffer (50 mM Tris-HCl pH 7.4, 2 mM EDTA, 1 mM MgCl2, 0.2% NP-40, 1 mM sodium orthovanadate, 1 mM sodium fluoride and protease inhibitor cocktail) followed by centrifugation at 7000×g at 4° C. for 10 minutes. Lysate was diluted with ice-cold 2× binding buffer (100 mM Tris-HCl pH 7.4, 300 mM NaCl, 0.2% NP-40, 2 mM sodium orthovanadate, 2 mM sodium fluoride, and protease inhibitor cocktail) 27. The lysate was divided into three fractions to be treated with either DMSO, or 20 μM of bitoinylated-CLK8 (bait) with or without 200 μM CLK8 (competitor). […]
The next step was to check for off-targets of CLK8. […] Since the amount of precipitated endogenous CLOCK was insufficient to be detected in LC-MS/MS, whole cell lysate of HEK 293T cells overexpressing CLOCK and BMAL1 were used for LC-MS/MS. We determined proteins that potentially bind to CLK8 by utilizing a minimum threshold for peptide spectrum matches and coverage equal to those of the main target, CLOCK. We also excluded proteins that have been detected in negative controls of the CRAPome database (32), assuming them as abundant sticky proteins. […] BMAL1 was detected in lower amounts when a competitor was present. […]

Peptide spectrum matches, CLOCK (Competitor 0 μM): 42 | Peptide spectrum matches, CLOCK (Competitor 200 μM): not detected
SMILES: CC1(C)CCc2c(cc(OCC(=O)Nc3ccccc3C(N)=O)c3c(-c4ccccc4)cc(=O)oc23)O1 [CLK8, 2-[2-({12,12-dimethyl-4-oxo-6-phenyl-3,11-dioxatricyclo [8.4.0.0,2,7]tetradeca-1,5,7,9-tetraen-8-yl}oxy)acetamido] benzamide]
